Earlier results in patent publication US6841363B2, “Preparation of capped mRNA” (Emory University, priority 2000, dated 2005).

Experiments:
[1] = intrinsic fluorescence, m7GTP; W56Y compared with wild-type, 'shown therein' (Hsu et al. 2000 / U.S. Pat. No. 6,232,442)
m7GTP = conditions: previous study (U.S. Pat. No. 6,232,442); human eIF4E and mutants; read-out: Kd (affinity for m7GTP)

Kd [1]: 318 nM | Kd (m7GTP): 1200 nM
Substance: wild-type: abundant form of human eIF4E (eukaryotic initiation factor 4E) previously isolated and characterized
